Source: patent US7696177B2, “Anti-hypercholesterolemic compounds” (Merck Sharp & Dohme Corp., priority 2005, dated 2010)

Test system: cholesterol absorption
Assay: Cholesterol Absorption Assay in Mice
Format: in vivo, C57BL/6 male mice
Details: at the highest dose tested; oral dosing 0.12-10 mg/kg, [3H]-cholesterol counts in liver and plasma 5 h later
Experimental: Compounds of this invention were determined to inhibit cholesterol absorption employing the Cholesterol Absorption Assay in Mice, below. This assay involves comparing a test compound to ezetimibe with respect to their ability to inhibit cholesterol absorption in mice.
Cholesterol Absorption Assay in Mice:
C57BL/6 male mice (n=6/group), aged 10-14 weeks, were dosed orally with 0.2 ml 0.25% methyl cellulose solution with or without test compound or ezetimibe (0.12-10 mg/kg). Thirty minutes later all of the mice were dosed orally with 0.2 ml […]™ containing 2 μCi [^3H]-cholesterol per mouse. Five hours later, the animals were euthanized, and liver and blood were collected. Cholesterol counts in liver and plasma were determined, and percent inhibition of cholesterol absorption was calculated.

With `O=C1[C@H](CC[C@H](O)c2ccc(F)cc2)[C@@H](c2ccc(O)cc2)N1c1ccc(F)cc1` [ezetimibe] the “inhibition of cholesterol absorption” value was greater than 90%.
